# From PMC10222548, “Semisynthesis, Biological Evaluation and Molecular Docking Studies of Barbatic Acid Derivatives as Novel Diuretic Candidates” (Molecules, 2023)
# Where “and” joins values, the source holds several entries; their conditions need not be identical. Equal values may be shown once.
# How the values were obtained:
# [1] = tested on: C2O4^2− transport, MDCK cells; assay: In vitro litholytic activity: C2O4^2− transport inhibition, Transwell chamber with MDCK cells; assay type: cell-based, canine; conditions: Canis lupus familiaris; 100 μmol/L, MDCK cells in Transwell; mean ± SD of three replicates; read-out: Transport Inhibition Rate (%) C2O4^2−
# Experimental: (§1) On the other hand, all compounds had little inhibitory effect on Ca^2+ transport. The structure–activity relationships (SARs) were also observed. […] On the other hand, the introduction of the benzyl group to the R^1 or R^2 of barbatic acid could not lead to more promising compounds, such as 6a, 6n, 6u, 6b′, and 6i′–p′.
# (§2) Logarithmic-phase DMCK cells were inoculated in the upper chamber of a Transwell plate (4 × 10^4 cells/well). Then, 800 µL of complete culture medium was added to the lower chamber, and the cells were incubated for 24 h until they adhered to the wall. The resistance value of the upper chamber cells was measured one by one at 37 °C (R = (Rcell − Rblank) × 0.04π). When the resistance value of the upper chamber cells was ≥300 Ω cm^2, the upper chamber liquid was discarded for drug administration. A control group (given physiological saline) and an experimental group (1, 6a–6p′, 100 μmol/L) were set up, and 100 µL of each drug was administered per well, followed by continued incubation for 24 h. Then, the upper and lower chamber liquids were discarded, and 200 µL of CaC2O4 (30 mmol/L) solution was added to the upper chamber, and 800 µL of PBS solution was added to the lower chamber for continued incubation. At 0.5, 1, 2, and 3 h, 50 µL of the lower chamber liquid was taken and then tested using the Ca^2+ and C2O4^2− detection kits and the following detection methods. The transport inhibition rate (%) = (ODblank − ODexperimental)/ODblank × 100%.
# [2] = tested on: Na^+ transport, MDCK cells; assay: In vitro diuretic activity: Na^+ transport inhibition, Transwell chamber seeded with MDCK cells; assay type: cell-based, canine; conditions: for inhibition at 100 µM: Canis lupus familiaris, MDCK, read-out: Transport Inhibition Rate (%) Na^+; for inhibition at 100 µM / Transport Inhibition Rate (%) Na^+: 100 μmol/L, MDCK cells in Transwell, mean ± SD of three replicates, negative = promotion
# Source text: (§3) The traditional methods for screening diuretic drugs are mostly in vivo experiments with mice, which have a long experimental cycle and are not suitable for screening massive compounds. As we know, the generation and excretion of urine involve two processes: glomerular filtration and tubular reabsorption. Reabsorption refers to the process in which the renal tubular epithelial cells transport water and certain solutes from the tubular fluid (urine) partially or entirely back into the bloodstream. Then, 99% of the water in the original urine filtered by the glomerulus is reabsorbed, and the transport of Na^+ and Cl^− plays an important role in this process. Thiazide and furosemide diuretics exert their diuretic effects by inhibiting the transport of Na^+ and Cl^−, which affects the tubular reabsorption of the original urine. Based on this principle, we established a new type of cell screening model for diuretic active drugs. Madin–Darby canine kidney (MDCK) cells were inoculated into a Transwell chamber to simulate the renal tubules. This cell model could transport and absorb external NaCl, simulating the reabsorption phenomenon. […] The effectiveness of this model was confirmed by the validation of hydrochlorothiazide, which is a commercially available diuretic drug and could inhibit the transport of Na^+ and Cl^− in renal tubules.
# (§4) Generally, the transport of Na^+ and Cl^− plays an important role in glomerular filtration and tubular reabsorption. […] For example, inhibition rates of transport of 6a and 6c were over 30%, and had better inhibitory ability than barbatic acid. […] When ethyl, propyl, and benzyl were substituted on R^1, the introduction of any group could not enhance the inhibitory activity of barbatic acid, such as 6h–u and 6j′–6p′.
# (§5) Log-phase MDCK cells were seeded in the upper chambers of Transwell plates (4 × 10^4 cells/well), and 800 µL of complete culture medium was added to the lower chambers. After 24 h of incubation at 37 °C, the electrical resistance of the upper chamber cells was measured one by one (R = (Rcell − Rblank) × 0.04π). When the electrical resistance of the upper chamber cells reached ≥300 Ω cm^2, the upper chamber medium was removed and replaced with the drug solution. The blank group (given normal saline), the experimental group (1, 6a–6p′, 100 μmol/L), and the hydrochlorothiazide group (100 μmol/L) were set, and each well was treated with 100 µL of the corresponding solution. The cells were then further incubated for 24 h. After that, the upper and lower chamber fluids were removed, and 200 µL of NaCl solution (15 mg/mL) was added to the upper chamber, while 800 µL of DMEM was added to the lower chamber for continued incubation. At 0.5, 1, 2, and 3 h, 50 µL of the lower chamber fluid was taken and the OD values were measured using Na^+ and Cl^− detection kits. The transport inhibition rate (%) was calculated as follows: transport inhibition rate (%) = (ODblank − ODexperimental)/ODblank × 100%.
# [3] = tested on: Ca^2+ transport, MDCK cells; assay: In vitro litholytic activity: Ca^2+ transport inhibition, Transwell chamber with MDCK cells; assay type: cell-based, canine; conditions: Canis lupus familiaris, 100 μmol/L, mean ± SD of three replicates, read-out: Transport Inhibition Rate (%) Ca^2+
# Experimental: as §1, §2
# MDCK cells = assay: MTT cytotoxicity assay on MDCK cells; assay type: cell-based, canine; conditions: Canis lupus familiaris, 100 μmol/L, 24 h, mean ± SD of three replicates, read-out: Growth Inhibition Rate (%)
# Experimental: First, we used the MTT method to perform cytotoxicity of barbatic acid derivatives (1, 6a–6p′) on MDCK cells at the concentration of 100 μmol/L, and the results are shown in Table 1.
# The MTT assay was used to evaluate the cytotoxicity of the target compounds on DMCK cells. Logarithmic-growth-phase DMCK cells were seeded in a 96-well plate (10^4 cells/well) and incubated in a cell culture incubator for 24 h. The culture medium was then removed and replaced with a drug-containing medium for the treatment groups (1, 6a–6p′, 100 μmol/L), normal saline for the control group, or hydrochlorothiazide (100 μmol/L) for the positive control group. Each well was treated with 100 µL of the respective solution and incubated for an additional 24 h. The culture medium was then removed and replaced with a DMEM solution containing 20 µL of MTT (5 mg/mL). After incubating for 4 h, the liquid in each well was removed and replaced with 150 µL of DMSO, which was shaken for 10 min to ensure thorough mixing. The absorbance at 490 nm was measured to determine the optical density (OD) of each well. Cell growth inhibition rate (%) = (ODBlank − ODExperimental)/ODBlank × 100%.
# [4] = tested on: Cl^− transport, MDCK cells; assay: In vitro diuretic activity: Cl^− transport inhibition, Transwell chamber seeded with MDCK cells; assay type: cell-based, canine; conditions: Canis lupus familiaris; 100 μmol/L, MDCK cells in Transwell; mean ± SD of three replicates; negative = promotion; read-out: Transport Inhibition Rate (%) Cl^−
# Source text: as §3, §4, §5
SMILES,melting point,inhibition at 100 µM [1],inhibition at 100 µM [2],inhibition at 100 µM [3],inhibition at 100 µM (MDCK cells),inhibition at 100 µM [4],Transport Inhibition Rate (%) Na^+ [2],"Na^+ transport inhibition rate at 1, 2, and 3 h ([2]; evaluated at 1, 2, and 3 h (Figure 3))"
"Cc1cc(OCc2ccccc2)c(C)c(O)c1C(=O)Oc1cc(C)c(C(=O)OC(C)C)c(O)c1C [6m′, 3-hydroxy-4-(isopropoxycarbonyl)-2,5-dimethylphenyl 4-(benzyloxy)-2-hydroxy-3,6-dimethylbenzoate]",135 to 138 °C,2.28 ± 1.34%,-0.36 ± 0.4%,-2.06 ± 0.09%,< 0%,-4.93 ± 2.95%,,
"C=CCOC(=O)c1c(C)cc(OC(=O)c2c(C)cc(OCc3ccccc3)c(C)c2O)c(C)c1O [6n′, allyl 4-(4-(benzyloxy)-2-hydroxy-3,6-dimethylbenzoyloxy)-2-hydroxy-3,6-dimethylbenzoate]",127 to 130 °C,-29.4 ± 3.89%,-1.85 ± 0.8%,0.1 ± 0.3%,< 0%,-13 ± 0.15%,,
"Cc1cc(OCc2ccccc2)c(C)c(O)c1C(=O)Oc1cc(C)c(C(=O)OCC#N)c(O)c1C [6o′, 4-((cyanomethoxy)carbonyl)-3-hydroxy-2,5-dimethylphenyl 4-(benzyloxy)-2-hydroxy-3,6-dimethylbenzoate]",151 to 155 °C,2.03 ± 1.07%,-3.28 ± 0.75%,-1.82 ± 0.23%,< 0%,-24 ± 1.5%,,
"Cc1cc(OCc2ccccc2)c(C)c(O)c1C(=O)Oc1cc(C)c(C(=O)OCc2ccccc2)c(O)c1C [6p′, benzyl 4-(4-(benzyloxy)-2-hydroxy-3,6-dimethylbenzoyloxy)-2-hydroxy-3,6-dimethylbenzoate]",153 to 157 °C,7.16 ± 1.56%,16.3 ± 0.1%,-3.34 ± 0.26%,< 0%,-5.43 ± 0.85%,,
"COc1cc(C)c(C(=O)Oc2cc(C)c(C(=O)OCc3ccccc3)c(O)c2C)c(O)c1C [Compound 6a, Benzyl 2-hydroxy-4-((2-hydroxy-4-methoxy-3,6-dimethylbenzoyl)oxy)-3,6-dimethylbenzoate]",113 to 115 °C,-16.6 ± 0.37%,> 30%,-7.98 ± 0.17%,< 0%,8.76 ± 0.25%,33.51 ± 5.95%,
"COC(=O)c1c(C)cc(OC(=O)c2c(C)cc(OC)c(C)c2O)c(C)c1O [Compound 6b, 3-hydroxy-4-(methoxycarbonyl)-2,5-dimethylphenyl 2-hydroxy-4-methoxy-3,6-dimethylbenzoate]",177 to 180 °C,-4.25 ± 1.08%,,-5.14 ± 0.31%,< 0%,5.71%,less than 10% and −9.31 ± 7.15%,
"CCOC(=O)c1c(C)cc(OC(=O)c2c(C)cc(OC)c(C)c2O)c(C)c1O [Compound 6c, 4-(ethoxycarbonyl)-3-hydroxy-2,5-dimethylphenyl 2-hydroxy-4-methoxy-3,6-dimethylbenzoate]",175 to 178 °C,1.01 ± 2.03%,> 30%,-2.3 ± 0.34%,< 0%,-7.56 ± 0.35%,47.18 ± 0.80%,above 20%
"CCCOC(=O)c1c(C)cc(OC(=O)c2c(C)cc(OC)c(C)c2O)c(C)c1O [Compound 6d, 3-hydroxy-2,5-dimethyl-4-(propoxycarbonyl)phenyl 2-hydroxy-4-methoxy-3,6-dimethylbenzoate]",146 to 149 °C,-6.69 ± 8.67%,8.04 ± 0.4%,-9.93 ± 0.19%,3.04 ± 0.3%,-9.21 ± 0.45%,,
"COc1cc(C)c(C(=O)Oc2cc(C)c(C(=O)OC(C)C)c(O)c2C)c(O)c1C [Compound 6e, 3-hydroxy-4-(isopropoxycarbonyl)-2,5-dimethylphenyl 2-hydroxy-4-methoxy-3,6-dimethylbenzoate]",135 to 138 °C,-2.05 ± 3%,-0.88 ± 4.35%,-3.66 ± 0.27%,< 0%,-3.13 ± 0.65%,,
"C=CCOC(=O)c1c(C)cc(OC(=O)c2c(C)cc(OC)c(C)c2O)c(C)c1O [Compound 6f, allyl 2-hydroxy-4-(2-hydroxy-4-methoxy-3,6-dimethylbenzoyloxy)-3,6-dimethylbenzoate]",155 to 157 °C,6.89 ± 1.5%,-0.5 ± 0.1%,-3.66 ± 0.25%,< 0%,-0.61 ± 0.6%,,
COc1cc(C)c(C(=O)Oc2cc(C)c(C(=O)OCC#N)c(O)c2C)c(O)c1C [Compound 6g],184 to 187 °C,-12.6 ± 2.88%,12.1 ± 1.3%,-8.61 ± 0.19%,0.12 ± 0.1%,-27.7 ± 1%,,
